# Test results published in patent US20130203635A1, “NUCLEIC ACID LIGATION METHOD” (priority 2012, published 2013).
# T1: Pyrococcus horikoshii Archease
# T1 chain: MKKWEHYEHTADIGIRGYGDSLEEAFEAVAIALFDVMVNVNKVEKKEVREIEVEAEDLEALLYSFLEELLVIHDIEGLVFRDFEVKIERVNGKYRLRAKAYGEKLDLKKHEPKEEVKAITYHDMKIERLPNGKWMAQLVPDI
# What was measured:
# human RtcA = human RtcA (Homo sapiens, UniProt O00442); conditions: read-out: ATP KM; cited from earlier work
# E. coli RtcA = E. coli RtcA (Escherichia coli, UniProt P46849); conditions: read-out: ATP KM; cited from earlier work
# E. coli RtcA, sequence (P46849 whole entry): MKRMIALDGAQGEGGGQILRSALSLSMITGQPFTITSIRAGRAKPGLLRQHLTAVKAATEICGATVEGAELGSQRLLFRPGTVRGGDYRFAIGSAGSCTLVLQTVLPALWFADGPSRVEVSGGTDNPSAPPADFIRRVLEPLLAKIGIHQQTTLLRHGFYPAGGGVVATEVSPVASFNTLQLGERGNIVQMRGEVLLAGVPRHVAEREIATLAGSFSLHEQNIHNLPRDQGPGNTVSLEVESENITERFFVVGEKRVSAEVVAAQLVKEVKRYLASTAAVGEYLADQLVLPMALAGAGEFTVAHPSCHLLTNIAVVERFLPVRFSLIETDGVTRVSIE
# [1] = system: Escherichia coli RtcB ligase; assay: E. coli RtcB RNA ligation assay (3′-P and 5′-OH termini, urea-polyacrylamide gel); format: biochemical
# Text: FIG. 1. […] (A) RNA ligation substrate that mimics a broken tRNA anti-codon. FAM label allows visualization in a urea-polyacrylamide gel. […] (B) Cofactor- and metal-dependence of ligation. Reactions contain manganese, except in the “—Mn^2+” lane. The lane labeled “C78A” is a ligation reaction performed with RtcB that has a C78A substitution within the predicted metal binding site. (C) Ligation assays using GTP analogues as cofactors. […] (E) RNA termini specificity of RtcB. Modifications to the ligatable ends of the tRNA mimic substrate were made as indicated and tested in ligation reactions.
# To assay for ligation, we initially used two single-stranded RNA (ssRNA) oligos that were each 10 nucleotides in length. The 5′ RNA fragment was labeled with 6-carboxyfluorescein (FAM) at its 5′ end and phosphorylated at its 3′ end. The 3′ RNA fragment had hydroxyl groups at each end. We intended to convert the 3′-P into a 2′,3′-cyclic phosphate by incubation with RtcA and ATP, so as to produce a suitable substrate for RtcB.
# These reactions were performed with high concentrations of GTP analogues to ensure saturation of RtcB.
# We investigated the RNA termini structure requirements for ligation by modifying the ends of our tRNA mimic substrate. First, all four combinations of either a phosphate or hydroxyl group at each termini were sampled while maintaining a 2′-OH on the 5′ side of the ligation junction. […] Next, the importance of the terminal ribose 2′-OH for ligation was probed by replacing this hydroxyl group with either hydrogen (2′-H) or fluorine (2′-F).
# P. horikoshii RtcB [2] = assay: P. horikoshii RtcB RNA ligation assay; format: biochemical, Pyrococcus horikoshii; conditions: Archease 0.25 μM, NTP 100 μM, RtcB 5 μM (FIG. 10B, 11B)
# Text: FIG. 2. P. horikoshii RtcB catalyzed ligation of 3′-P and 5′-OH RNA termini. P. horikoshii RtcB requires Mn^2+ and GTP for ligation. […] The lane labeled “2′-deoxy” is a ligation reaction using the tRNA mimic substrate but with a 3′-P/2′-H termini on its 5′ fragment. The lane labeled “C98A” is a ligation reaction with RtcB that has a C98A substitution within the predicted metal-binding site.
# RtcB from the archaeal domain of life likewise catalyzes the GTP-dependent ligation of 3′-P and 5′-OH RNA termini. The crystal structure of RtcB from a hyperthermophilic archaeon, Pyrococcus horikoshii, was determined as part of a structural genomics project (21). […] The P. horikoshii homologue has 29% amino-acid sequence identity to E. coli RtcB, and 49% identity to the human ligase (HSPC117). To investigate if RtcB from archaea catalyzes the GTP-dependent ligation of 3′-P and 5′-OH RNA termini, we synthesized a P. horikoshii rtcB gene and produced soluble enzyme in E. coli. […] The P. horikoshii ligase also required a 2′-OH on the terminal nucleotide of the 5′ RNA fragment.
# RNA Ligation Assay. Ligation assays with single-stranded RNA as the substrate used two 10-nt oligonucleotides that were synthesized by Integrated DNA Technologies (15). […] The 3′ RNA fragment had hydroxyl groups on each end. The sequence of the 5′ fragment was FAM-5′-AAAUAACAAA-3′-P (SEQ ID NO:6) and the sequence of the 3′ RNA fragment was 5′-AAAUAACAAA-3′ (SEQ ID NO:6). Ligation reactions were performed in 10-μL solutions consisting of 50 mM Bis-Tris buffer, pH 7.0, containing NaCl (300 mM), […] (0.25 mM), GTP (100 μM), each RNA fragment (1 μM), and RtcB (10 μM). Reaction mixtures were incubated at 70° C. for 1 h prior to the addition of water (40 μL) and RNA-loading buffer (50 μL). Reaction mixtures were subjected to electrophoresis and visualized as previously described in the previous examples.
# The ability of Archease to activate P. horikoshii RtcB was tested in reactions using ssRNA substrates. Ligation reactions included a 10-nt 5′ RNA fragment and a 10-nt 3′ RNA fragment. […] The 3′ RNA fragment had hydroxyl groups on each end. The sequence of the 5′ fragment was FAM-5′-AAAUAACAAA-3′-P (SEQ ID NO:6) and the sequence of the 3′ RNA fragment was 5′-AAAUAACAAA-3′ (SEQ ID NO:6). Ligation reactions were performed in 50-μL solutions consisting of 50 mM Tris-HCl buffer, pH 7.4, containing NaCl (300 mM), MnCl2 (0.25 mM), GTP (100 μM), RNA fragments (100 pmol of each), and P. horikoshii RtcB (5 μM).
# Ligation reaction mixtures were set up as described above, and each was divided into two tubes. No Archease was added to one set of reaction mixtures (FIG. 10A), and Archease was added to a concentration of 0.25 μM to the other set (FIG. 10B). […] Archease had no effect on ligation reactions that used 2′-F RNA.
# We tested the ability of Archease to enable RtcB to use cofactors other than GTP or dGTP. Ligation reaction mixtures with RtcB were set up as described above, and each was divided into two tubes. No Archease was added to one set of reaction mixtures (FIG. 11A), and Archease was added to a concentration of 0.25 μM to the other set (FIG. 11B). The various NTPs were included at a concentration of 100 μM.
# P. horikoshii RtcB [3] = assay: 14C-labeled GTP binding assay; design: species or system Pyrococcus horikoshii
# Procedure: Structure of the RtcB-Histidine-GMP Covalent Intermediate. To determine the optimal reaction conditions that enable formation of the RtcB-GMP covalent intermediate, ^14C-labeled GTP binding studies were performed (7). […] Under these conditions, the maximal GMP:RtcB molar ratio was determined to be (0.76±0.02):1. No binding of GTP to RtcB was detected in the absence of Mn(II). Using these reaction conditions, we formed the RtcB-GMP intermediate and removed unbound Mn(II), GTP, and PPi by gel-filtration chromatography. The protein was concentrated to 200 μM, and crystals of this complex diffracted to a resolution of 2.4 Å.
# ^14C-labeled GTP Binding Assays. […] Absorbance readings at A260 and A280 were obtained for each fraction. The protein fractions have high A280 readings, whereas the fractions with free GTP have higher A260 readings. In fractions containing protein, the RtcB concentrations were calculated from the A280 reading using an extinction coefficient of 62,340 M^−1 cm^−1 (ExPASy). The concentration of [8-^14C]GTP in the protein fractions was determined by liquid scintillation counting. Each 0.5-mL fraction was mixed with 3.5 mL of Ultima Gold MV liquid scintillation cocktail (Perkin Elmer) in a 4-mL vial, and counts were read on a MicroBeta TriLux liquid scintillation counter (Perkin Elmer). […] Under these conditions, the GTP:RtcB molar ratio was determined to be (0.76±0.02):1. […]
# [4] = target: T1, Pyrococcus horikoshii Archease
# human RtcA, sequence (O00442 whole entry): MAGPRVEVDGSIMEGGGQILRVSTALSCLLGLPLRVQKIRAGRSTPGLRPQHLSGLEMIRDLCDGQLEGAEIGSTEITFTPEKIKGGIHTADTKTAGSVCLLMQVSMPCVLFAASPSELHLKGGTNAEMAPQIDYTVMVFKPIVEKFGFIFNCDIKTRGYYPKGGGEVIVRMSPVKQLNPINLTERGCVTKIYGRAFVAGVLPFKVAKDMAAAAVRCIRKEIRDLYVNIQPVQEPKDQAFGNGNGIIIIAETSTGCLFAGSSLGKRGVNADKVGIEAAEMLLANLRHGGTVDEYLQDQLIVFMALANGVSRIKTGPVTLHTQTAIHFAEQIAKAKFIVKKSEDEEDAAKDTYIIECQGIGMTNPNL
Molecule,Km (human RtcA) [µM],Km (E. coli RtcA) [µM],"use as cofactor in ligation of 3′-P and 5′-OH RNA termini ([1]; in place of GTP, tRNA anticodon stem-loop mimic substrate, with Mn2+ (FIG. 1B, 1C))",use as cofactor in RNA ligation with Archease (P. horikoshii RtcB [2]),"maximal GMP:RtcB (GTP:RtcB) molar ratio (P. horikoshii RtcB [3]; RtcB 100 μM, GTP 1 mM, MnCl2 2 mM, 70° C. for 45 min)",binding of GTP to RtcB (P. horikoshii RtcB [3]; in the absence of Mn(II)),"Km ([1]; titration with GTP, tRNA mimic substrate (FIG. 1D)) [µM]",RNA ligation (urea-polyacrylamide gel of FAM-labeled ssRNA substrate and product) [4]
"Nc1ncnc2c1ncn2[C@@H]1O[C@H](COP(=O)(O)OP(=O)(O)OP(=O)(O)O)[C@@H](O)[C@H]1O [ATP, adenosine-5′-triphosphate]",6,20,unable to substitute for GTP,enables RtcB to use ATP,,,,
"Nc1nc2c(ncn2[C@@H]2O[C@H](COP(=O)(O)OP(=O)(O)OP(=O)(O)O)[C@@H](O)[C@H]2O)c(=O)[nH]1 [GTP, guanosine-5′-triphosphate]",,,,selectively activated,0.76±0.02,No binding,< 16,
"Pyrococcus horikoshii 2',3'-cyclic phosphate RNA ligase (RtcB) (protein) MVVPLKRIDKIRWEIPKFDKRMRVPGRVYADEVLLEKMKNDRTLEQATNVAMLPGIYKYSIVMPDGHQGYGFPIGGVAAFDVKEGVISPGGIGYDINCGVRLIRTNLTEKEVRPRIKQLVDTLFKNVPSGVGSQGRIKLHWTQIDDVLVDGAKWAVDNGYGWERDLERLEEGGRMEGADPEAVSQRAKQRGAPQLGSLGSGNHFLEVQVVDKIFDPEVAKAYGLFEGQVVVMVHTGSRGLGHQVASDYLRIMERAIRKYRIPWPDRELVSVPFQSEEGQRYFSAMKAAANFAWANRQMITHWVRESFQEVFKQDPEGDLGMDIVYDVAHNIGKVEEHEVDGKRVKVIVHRKGATRAFPPGHEAVPRLYRDVGQPVLIPGSMGTASYILAGTEGAMKETFGSTCHGAGRVLSRKAATRQYRGDRIRQELLNRGIYVRAASMRVVAEEAPGAYKNVDNVVKVVSEAGIAKLVARMRPIGVAKG",,,,,,,,the addition of Archease at concentrations that are lower than that of RtcB or RNA enhanced catalysis of RNA ligation
